Source: patent US4289776A, “Xanthine derivatives” (Hoechst Aktiengesellschaft, priority 1973, dated 1981)
Values belong to the molecule of their own block, whether it stands above or below them.

Experiments:
Solubility = type: physicochemical
[1] = tested on: bronchospasm against acrotonine; experiment: Broncholytic effect at the narcotized guinea-pig, bronchospasm by acrotonine (so in the source); type: in vivo; details: 2 min. i.p.
Protocol: (§1) 2. Broncholytic effect at the narcotized guinea-pig
(§2) This test was performed according to H. Konsett and R. Rossler ("Archiv exp. Path. Pharmak." vol. 195 (1940), page 71).

cerebral blood perfusion = experiment: Cerebral blood perfusion by fluvography at the cat (i.v.); type: in vivo
Protocol: (§3) Animal tests were carried out with various oxoalkylxanthine derivatives, in which the toxicity in the mouse, the increase of cerebral and muscular blood perfusion at the cat and the fibrinolytic effect in vitro in the Hanging-Clot-test were measured. Furthermore the broncholytic effect of various compounds was tested.
(§4) 1. Cerebral and muscular blood perfusion by fluvography
(§5) These tests were performed at the cat according to K. Popendiker, I. Boksay and V. Bollmann ("Arzneimittel Forschung" vol. 21 (1971), page 1160).
(§6) The values obtained in the mentioned test 1 are given as Δλ and as half-life values in Table 2 and the results of tests 2 to 5 are enumerated in Table 3. In Table 2 Δλ is the change of blood perfusion.

[2] = Toxicity in the mouse (LD50); details: in vivo, ip, read-out: Toxicity (LD50-range or LD50)
Protocol: The toxicity was determined as LD50 --range or as LD50 according to Litchfield and Wilcoxon ("J. Pharmacol. exp. Ther." 97 (1949), page 399) in the mouse.

[3] = tested on: bronchospasm against histamine; experiment: Broncholytic effect at the narcotized guinea-pig, bronchospasm by histamine; type: in vivo; details: for change in vivo at 3 mg/kg: 3 mg/kg i.v.; for change in vivo at 10 mg/kg: 10 mg/kg i.v.
Protocol: as §1, §2

[4] = tested on: bronchospasm against acetylcholine; experiment: Broncholytic effect at the narcotized guinea-pig, bronchospasm by acetylcholine; type: in vivo; details: Cavia porcellus, iv, 2 min, 2 min. i.p.; for change in vivo at 10 mg/kg: 10 mg/kg i.v.
Protocol: as §1, §2

muscular blood perfusion = experiment: Muscular blood perfusion by fluvography at the cat (i.v.); type: in vivo
Protocol: as §3, §4, §5, §6

[5] = Cavia porcellus, iv, 2 min, 2 min. i.p.
[6] = 2 mg/kg i.v. vs sample 8 at 5 mg/kg

Solubility in dimethyl sulphoxide (Solubility): over 10%
Solubility in dimethylformamide (Solubility): over 10%
Solubility in ethanol (Solubility): over 10%
Solubility in water (in words) (Solubility): only sparingly soluble in water
Structure (SMILES): CCCCCCn1cnc2c1c(=O)n(CCCCC(C)=O)c(=O)n2C [Example 2, 1-(5-Oxohexyl)-3-methyl-7-n-hexyl-xanthine]

Solubility in dimethyl sulphoxide (Solubility): over 10%
Solubility in dimethylformamide (Solubility): over 10%
Solubility in ethanol (Solubility): over 10%
Structure (SMILES): CC(=O)CCCCn1c(=O)c2c(ncn2CC(C)C)n(C)c1=O [Example 3, 1-(5-oxohexyl)-3-methyl7-isobutyl-xanthine]

Structure (SMILES): CC(=O)CCCCn1cnc2c1c(=O)n(CC(C)C)c(=O)n2C [Sample 2, 1-isobutyl-3-methyl-7-(5-oxohexyl)-xanthine]
Change of the bronchospasm in % against acrotonine ([1]; 3 mg/kg i.v.): -20%
Change of the bronchospasm in % against acrotonine ([1]; 10 mg/kg i.v.): -47%
Cerebral blood perfusion half-life (cerebral blood perfusion; 1 mg/kg i.v.): 1.0 min
Cerebral blood perfusion Δλ (change of blood perfusion) (cerebral blood perfusion; 1 mg/kg i.v.): +1.85
Cerebral blood perfusion half-life (cerebral blood perfusion; 5 mg/kg i.v.): 14.3 min
Cerebral blood perfusion relative to comparison sample 8 (cerebral blood perfusion; 5 mg/kg i.v.): about four times stronger
Cerebral blood perfusion Δλ (change of blood perfusion) (cerebral blood perfusion; 5 mg/kg i.v.): +3.45
Half-life (cerebral) relative to comparison sample 8 (cerebral blood perfusion; 5 mg/kg i.v.): more than five times longer
Cerebral blood perfusion compared with sample 8 (in words) (cerebral blood perfusion; i.v.): stronger and longer cerebral blood perfusion
LD50 [2]: 250 to 500 mg/kg
change in vivo at 3 mg/kg [3, 5]: -80%
change in vivo at 10 mg/kg [3, 5]: -73%
change in vivo at 10 mg/kg [4]: -29%
Muscular blood perfusion Δλ (change of blood perfusion) (muscular blood perfusion; 1 mg/kg i.v.): 0
Muscular blood perfusion half-life (muscular blood perfusion; 5 mg/kg i.v.): 0.60 min
Muscular blood perfusion Δλ (change of blood perfusion) (muscular blood perfusion; 5 mg/kg i.v.): +0.05

Structure (SMILES): CCCCCCn1c(=O)c2c(ncn2CCCCC(C)=O)n(C)c1=O [Sample 3, I-(n-hexyl)-3-methyl-7-(5-oxohexyl)-xanthine]
Change of the bronchospasm in % against acrotonine ([1]; 3 mg/kg i.v.): -50%
Change of the bronchospasm in % against acrotonine ([1]; 10 mg/kg i.v.): -100%
Cerebral blood perfusion half-life (cerebral blood perfusion; 1 mg/kg i.v.): 0.4 min
Cerebral blood perfusion Δλ (change of blood perfusion) (cerebral blood perfusion; 1 mg/kg i.v.): +0.97
Cerebral blood perfusion half-life (cerebral blood perfusion; 2 mg/kg i.v.): 7.0 min
Cerebral blood perfusion Δλ (change of blood perfusion) (cerebral blood perfusion; 2 mg/kg i.v.): +1.45
Cerebral blood perfusion relative to comparison sample 8 (cerebral blood perfusion; [6]): about two times as strong
Half-life (cerebral) relative to comparison sample 8 (cerebral blood perfusion; [6]): about three times as long
LD50 [2]: 250 to 500 mg/kg
change in vivo at 3 mg/kg [3, 5]: -52%
change in vivo at 10 mg/kg [3, 5]: -90%
Broncholytic effect against histamine compared with sample 8 ([3]; guinea pig, in vivo): improved broncholytic effect against histamine
change in vivo at 10 mg/kg [4]: -85%
Muscular blood perfusion half-life (muscular blood perfusion; 1 mg/kg i.v.): 3.30 min
Muscular blood perfusion Δλ (change of blood perfusion) (muscular blood perfusion; 1 mg/kg i.v.): -0.05
Muscular blood perfusion Δλ (change of blood perfusion) (muscular blood perfusion; 2 mg/kg i.v.): 0

Structure (SMILES): CCCCCCCCCCn1cnc2c1c(=O)n(CCCCC(C)=O)c(=O)n2C [Sample 6, 1-(5-oxohexyl)-3-methyl-7-(n-decyl)-xanthine]
Change of the bronchospasm in % against acrotonine ([1]; 10 mg/kg i.v., sample in propanediol, sample 1: Longtime effect (footnote 1)): -50%
Cerebral blood perfusion half-life (cerebral blood perfusion; 1 mg/kg i.v.): 0.2 min
Cerebral blood perfusion Δλ (change of blood perfusion) (cerebral blood perfusion; 1 mg/kg i.v.): +1.40
Cerebral blood perfusion half-life (cerebral blood perfusion; 3 mg/kg i.v.): 0.5 min
Cerebral blood perfusion Δλ (change of blood perfusion) (cerebral blood perfusion; 3 mg/kg i.v.): +2.8
LD50 [2]: 500 mg/kg
change in vivo at 10 mg/kg ([3]; Cavia porcellus, iv, 2 min, 2 min. i.p., sample in propanediol): -40%
change in vivo at 10 mg/kg ([4]; sample in propanediol): -50%
Muscular blood perfusion Δλ (change of blood perfusion) (muscular blood perfusion; 1 mg/kg i.v.): 0
Muscular blood perfusion half-life (muscular blood perfusion; 3 mg/kg i.v.): 4.00 min
Muscular blood perfusion Δλ (change of blood perfusion) (muscular blood perfusion; 3 mg/kg i.v.): +0.30

Structure (SMILES): CCCCn1cnc2c1c(=O)n(CCCCC(C)=O)c(=O)n2C [Sample 5, 1-(5-Oxohexyl)-3-methyl-7-(n-butyl)-xanthine]
Change of the bronchospasm in % against acrotonine ([1]; 5 mg/kg i.v.): -70%
Change of the bronchospasm in % against acrotonine ([1]; 10 mg/kg i.v.): -100%
Cerebral blood perfusion half-life (cerebral blood perfusion; 1 mg/kg i.v.): 1.3 min
Cerebral blood perfusion relative to comparison sample 8 (cerebral blood perfusion; 1 mg/kg i.v.): nearly six times higher
Cerebral blood perfusion Δλ (change of blood perfusion) (cerebral blood perfusion; 1 mg/kg i.v.): +2.50
Cerebral blood perfusion half-life (cerebral blood perfusion; 2 mg/kg i.v.): 1.3 min
Cerebral blood perfusion Δλ (change of blood perfusion) (cerebral blood perfusion; 2 mg/kg i.v.): +2.55
Cerebral blood perfusion half-life (cerebral blood perfusion; 5 mg/kg i.v.): 3.0 min
Cerebral blood perfusion relative to comparison sample 8 (cerebral blood perfusion; 5 mg/kg i.v.): about three times higher
Cerebral blood perfusion Δλ (change of blood perfusion) (cerebral blood perfusion; 5 mg/kg i.v.): +2.40
LD50 [2]: 250 to 500 mg/kg
change in vivo at 5 mg/kg ([3]; Cavia porcellus, iv, 2 min, 5 mg/kg i.v., 2 min. i.p.): -42%
change in vivo at 10 mg/kg [3, 5]: -69%
change in vivo at 5 mg/kg ([4]; 5 mg/kg i.v.): -100%
change in vivo at 10 mg/kg [4]: -100%
Muscular blood perfusion Δλ (change of blood perfusion) (muscular blood perfusion; 1 mg/kg i.v.): 0
Muscular blood perfusion Δλ (change of blood perfusion) (muscular blood perfusion; 2 mg/kg i.v.): 0
Muscular blood perfusion Δλ (change of blood perfusion) (muscular blood perfusion; 5 mg/kg i.v.): 0
